In brackets after ≈: the same amount, converted by molar mass. Where a SMILES comes first, the peptide text is derived from it. [ ]: non-standard residue; d: D form. Ac6c = NC1(C(=O)O)CCCCC1; Api = NC1(C(=O)O)CCNCC1; Aib = CC(C)(N)C(=O)O
Columns and labels:
Assay type in all cases: functional
Escherichia coli = test: In vitro antibacterial activity of the peptide was tested against Escherichia coli
Staphylococcus aureus = test: In vitro antibacterial activity of the peptide was tested against Staphylococcus aureus
[1] = % helicity of the compound
Mus musculus [2] = test: In vivo antimicrobial activity of 500 microg peptide against Brucella abortus in chronically infected BALB/c mice
Mus musculus [3] = test: In vivo antimicrobial activity of 1 mg peptide against Brucella abortus in chronically infected BALB/c mice

Row | Compound | MIC (Escherichia coli) [µM] | MIC (Staphylococcus aureus) [µM] | Helicity [1] [%] | Reduction (Mus musculus [2]) [%] | Reduction (Mus musculus [3]) [%]
1 | NCCCC[C@H](NC(=O)[C@H](CCCCN)NC(=O)C1(NC(=O)C2(NC(=O)[C@H](CCCCN)NC(=O)C3(NC(=O)C4(NC(=O)[C@H](CCCCN)NC(=O)[C@@H](N)CCCCN)CCCCC4)CCCCC3)CCCCC2)CCCCC1)C(=O)NC1(C(N)=O)CCCCC1 (H-KK[Ac6c][Ac6c]K[Ac6c][Ac6c]KK[Ac6c]-NH2) | 5.7 (≈ 7.32 µg/mL) | 2.8 (≈ 3.59 µg/mL) |  |  | 
2 | CC(C)(N)C(=O)NC(C)(C)C(=O)N[C@@H](CCCCN)C(=O)N[C@H](CCCCN)C(=O)NC(C)(C)C(=O)NC(C)(C)C(=O)N[C@@H](CCCCN)C(=O)NC(C)(C)C(=O)NC(C)(C)C(=O)N[C@H](CCCCN)C(=O)N[C@@H](CCCCN)C(=O)NC(C)(C)C(=O)NC(C)(C)C(=O)N[C@H](CCCCN)C(=O)O |  |  | 42 |  | 
3 | CC(C)(NC(=O)C(C)(C)NC(=O)[C@H](CCCCN)NC(=O)[C@H](CCCCN)NC(=O)C(C)(C)NC(=O)C(C)(C)NC(=O)[C@H](CCCCN)NC(=O)C(C)(C)NC(=O)C(C)(C)NC(=O)[C@H](CCCCN)NC(=O)[C@H](CCCCN)NC(=O)C(C)(C)NC(=O)C(C)(C)NC(=O)[C@@H](N)CCCCN)C(N)=O (H-K[Aib][Aib]KK[Aib][Aib]K[Aib][Aib]KK[Aib][Aib]-NH2) | 5.5 (≈ 8.07 µg/mL) | 11 (≈ 16.1 µg/mL) |  | <73 | 
4 | NCCCC[C@H](NC(=O)[C@H](CCCCN)NC(=O)C1(NC(=O)C2(NC(=O)[C@H](CCCCN)NC(=O)C3(NC(=O)C4(NC(=O)[C@H](CCCCN)NC(=O)[C@H](CCCCN)NC(=O)C5(NC(=O)C6(NC(=O)[C@@H](N)CCCCN)CCCCC6)CCCCC5)CCCCC4)CCCCC3)CCCCC2)CCCCC1)C(=O)NC1(C(N)=O)CCCCC1 (H-K[Ac6c][Ac6c]KK[Ac6c][Ac6c]K[Ac6c][Ac6c]KK[Ac6c]-NH2) | 4.5 (≈ 7.48 µg/mL) | 2.2 (≈ 3.66 µg/mL) |  |  | 
5 | CC(C)(N)C(=O)NC(C)(C)C(=O)N[C@H](CCCCN)C(=O)NC1(C(=O)NC(C)(C)C(=O)NC(C)(C)C(=O)N[C@H](CCCCN)C(=O)NC2(C(=O)NC(C)(C)C(=O)NC(C)(C)C(=O)O)CCNCC2)CCNCC1 |  |  | 43 |  | 
6 | CC(C)(N)C(=O)NC(C)(C)C(=O)NC1(C(=O)N[C@@H](CCCCN)C(=O)NC(C)(C)C(=O)NC(C)(C)C(=O)NC2(C(=O)N[C@@H](CCCCN)C(=O)NC(C)(C)C(=O)NC(C)(C)C(N)=O)CCNCC2)CCNCC1 (H-[Aib][Aib][Api]K[Aib][Aib][Api]K[Aib][Aib]-NH2) | 7.7 (≈ 7.98 µg/mL) | 123 (≈ 127 µg/mL) |  | 90 | 
7 | H-KAAKKAAKAAKKAA-NH2 | > 178 | > 178 |  |  | 6
8 | NCCCC[C@H](NC(=O)[C@@H](CCCCN)NC(=O)C1(NC(=O)C2(NC(=O)[C@H](CCCCN)NC(=O)C3(NC(=O)C4(NC(=O)[C@@H](CCCCN)NC(=O)[C@H](CCCCN)NC(=O)C5(N)CCCCC5)CCCCC4)CCCCC3)CCCCC2)CCCCC1)C(=O)O |  |  | 43 |  | 
9 | CC(=O)N[C@@H](CCCCN)C(=O)N[C@@H](CCCCN)C(=O)NC(C)(C)C(=O)NC(C)(C)C(=O)N[C@@H](CCCCN)C(=O)NC(C)(C)C(=O)NC(C)(C)C(=O)N[C@@H](CCCCN)C(=O)N[C@@H](CCCCN)C(=O)NC(C)(C)C(=O)NC(C)(C)C(N)=O (Ac-KK[Aib][Aib]K[Aib][Aib]KK[Aib][Aib]-NH2) | 6.6 (≈ 7.99 µg/mL) | 212 (≈ 257 µg/mL) |  | 30 | 
10 | CC(C)(N)C(=O)NC(C)(C)C(=O)N[C@@H](CCCCN)C(=O)N[C@H](CCCCN)C(=O)NC(C)(C)C(=O)NC(C)(C)C(=O)N[C@@H](CCCCN)C(=O)NC(C)(C)C(=O)NC(C)(C)C(=O)N[C@H](CCCCN)C(=O)N[C@@H](CCCCN)C(=O)O |  |  | 35 |  | 
11 | NCCCC[C@H](NC(=O)[C@H](CCCCN)NC(=O)C1(NC(=O)C2(NC(=O)[C@H](CCCCN)NC(=O)C3(NC(=O)C4(NC(=O)[C@H](CCCCN)NC(=O)[C@@H](N)CCCCN)CCCCC4)CCCCC3)CCCCC2)CCCCC1)C(=O)NC1(C(=O)NC2(C(N)=O)CCCCC2)CCCCC1 (H-KK[Ac6c][Ac6c]K[Ac6c][Ac6c]KK[Ac6c][Ac6c]-NH2) | 5.2 (≈ 7.33 µg/mL) | 2.6 (≈ 3.66 µg/mL) |  |  | 
12 | CC(C)(NC(=O)C(C)(C)NC(=O)[C@H](CCCCN)NC(=O)[C@H](CCCCN)NC(=O)C(C)(C)NC(=O)C(C)(C)NC(=O)[C@H](CCCCN)NC(=O)C(C)(C)NC(=O)C(C)(C)NC(=O)[C@H](CCCCN)NC(=O)[C@@H](N)CCCCN)C(N)=O (H-KK[Aib][Aib]K[Aib][Aib]KK[Aib][Aib]-NH2) | 55 (≈ 64.3 µg/mL) | > 220 |  | <63 | 

— ChEMBL document CHEMBL1129634, “Antimicrobial alpha, alpha-dialkylated amino acid rich peptides with in-vivo activity against an intracellular pathogen” (1996)
